Experimental data taken from ChEMBL document CHEMBL1129046, “Structure-activity relationships of the antimalarial agent artemisinin. 4. Effect of substitution at C-3” (1996).

Legend:
[1] = tested on: Plasmodium falciparum; assay: Relative in vitro activity against drug-resistant Plasmodium falciparum D6; type: functional
[2] = tested on: Plasmodium falciparum; assay: Relative in vitro activity against drug-resistant Plasmodium falciparum W-6; type: functional

CCC[C@@]12CC[C@H]3[C@H](C)CC[C@H]4CC(=O)O[C@H](O1)[C@]43OO2
Relative activity [1]: 2102 | Relative activity [2]: 673

CCCC[C@H]1C(=O)O[C@@H]2O[C@@]3(CCCC)CC[C@H]4[C@H](C)CC[C@@H]1[C@@]24OO3
Relative activity [1]: 28 | Relative activity [2]: 33

CCCC[C@H]1C(=O)O[C@@H]2O[C@@]3(CCc4ccccc4)CC[C@H]4[C@H](C)CC[C@@H]1[C@@]24OO3
Relative activity [1]: 1 | Relative activity [2]: 1

CCOC(=O)CC[C@@]12CC[C@H]3[C@H](C)CC[C@H]4CC(=O)O[C@H](O1)[C@]43OO2
Relative activity [1]: 232 | Relative activity [2]: 232

C[C@@H]1CC[C@H]2[C@@H](C)C(=O)O[C@@H]3O[C@@]4(C)CC[C@@H]1[C@]32OO4 [ARTEMISININ]
Relative activity [1]: 100 | Relative activity [2]: 100

CC(C)C[C@@]12CC[C@H]3[C@H](C)CC[C@H]4CC(=O)O[C@H](O1)[C@]43OO2
Relative activity [1]: 53 | Relative activity [2]: 45

CCCC[C@@]12CC[C@H]3[C@H](C)CC[C@H]4CC(=O)O[C@H](O1)[C@]43OO2
Relative activity [1]: 20 | Relative activity [2]: 18

CCCC[C@H]1C(=O)O[C@@H]2O[C@@]3(CCCCc4ccccc4)CC[C@H]4[C@H](C)CC[C@@H]1[C@@]24OO3
Relative activity [1]: 39 | Relative activity [2]: 48

CCCC[C@H]1C(=O)O[C@@H]2O[C@@]3(CCC(=O)OCC)CC[C@H]4[C@H](C)CC[C@@H]1[C@@]24OO3
Relative activity [1]: 1382 | Relative activity [2]: 2285

C[C@@H]1CC[C@H]2CC(=O)O[C@@H]3O[C@@]4(CCc5ccccc5)CC[C@@H]1[C@@]23OO4
Relative activity [1]: 3 | Relative activity [2]: 1

CC[C@@]12CC[C@H]3[C@H](C)CC[C@H]4CC(=O)O[C@H](O1)[C@]43OO2
Relative activity [1]: 88 | Relative activity [2]: 112

CCCC[C@H]1C(=O)O[C@@H]2O[C@@]3(CCCc4ccc(Cl)cc4)CC[C@H]4[C@H](C)CC[C@@H]1[C@@]24OO3
Relative activity [1]: 43 | Relative activity [2]: 53

C[C@@H]1CC[C@H]2CC(=O)O[C@@H]3O[C@@]4(CCCc5ccc(Cl)cc5)CC[C@@H]1[C@@]23OO4
Relative activity [1]: 114 | Relative activity [2]: 127

CCCC[C@H]1C(=O)O[C@@H]2O[C@@]3(CC)CC[C@H]4[C@H](C)CC[C@@H]1[C@@]24OO3
Relative activity [1]: 184 | Relative activity [2]: 257

C[C@@H]1CC[C@H]2CC(=O)O[C@@H]3O[C@@]4(CCCCc5ccccc5)CC[C@@H]1[C@@]23OO4
Relative activity [1]: 220 | Relative activity [2]: 281
